Several values for one entry are separate records, joined by “and”; a condition that tells them apart may be missing. Equal entries are not always repeated. Entries after “also recorded” stand apart in the source; their conditions may differ.
Assays:
[1] = system: H274Y virus; assay type: cell-based; settings: read-out: IC50 against influenza virus replication (plaque formation), H274Y
[2] = system: NAI drug-resistant mutant stain H274Y-PR8 virus; design: species or system BALB/c mice; settings: mouse, in vivo
[3] = system: H274Y mutant influenza virus; settings: background statement; cited from earlier work

Row | Compound | IC50 [1] | body weight [2] | disease symptoms [2] | mortality rate [2] [%] | decrease of activity due to the resistance caused by the mutation of H274Y [3] | body weight decrease [2]
1 | CCCCS(=O)(=O)N[C@@H]1CCCN([C@@H]2C=C(C(=O)O)C[C@H](NC(=N)N)[C@H]2NC(C)=O)C1 [(3R,4R,5S)-4-acetamido-5-guanidino-3-((3R)-3-n-butylsulfonamidopiperidin)-1-cyclohexene-1-carboxylic acid] | 130 nM and 131 nM | basically the same as that of the uninfected control mice; also recorded: decreased significantly | no symptoms of any diseases | 20 | – | –
2 | CCOC(=O)C1=C[C@@H](OC(CC)CC)[C@H](NC(C)=O)[C@@H](N)C1.O=P(O)(O)O [Oseltamivir phosphate, ethyl (3R, 4R, 5S)-4-acetamido-5-amino-3-(1-ethylpropoxy)-1-cyclohexene-1-carboxylate phosphate] | 15000 nM | – | obvious disease symptoms | 40 | more than 300 times | –
3 | Peramivir | 643 nM | significant weight decline | mild disease symptoms; also recorded: obvious disease symbols | 60 | – | about 6%
